# Target: T1, human bradykinin B2 receptor (hB2R) (Homo sapiens, UniProt P30411)
# T1 sequence (P30411 1-391): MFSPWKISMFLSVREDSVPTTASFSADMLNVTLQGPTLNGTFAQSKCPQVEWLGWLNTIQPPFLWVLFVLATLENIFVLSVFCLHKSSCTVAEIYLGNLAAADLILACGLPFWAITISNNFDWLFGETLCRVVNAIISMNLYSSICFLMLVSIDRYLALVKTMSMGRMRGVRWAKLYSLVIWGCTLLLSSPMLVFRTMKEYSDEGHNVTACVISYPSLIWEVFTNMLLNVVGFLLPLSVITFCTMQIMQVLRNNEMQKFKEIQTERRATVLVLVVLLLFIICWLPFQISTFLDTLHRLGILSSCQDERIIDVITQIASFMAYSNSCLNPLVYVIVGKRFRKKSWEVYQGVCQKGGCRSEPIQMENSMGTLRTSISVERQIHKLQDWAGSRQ
# Assay: cell-based human bradykinin B2 receptor calcium mobilization (hB2R-CaM) assay
# Details: HTS041C cells, bradykinin at EC80, calcium mobilization; read-out: IC50-value towards human bradykinin B2 receptor (hB2R)
# From the text: The following cell-based human bradykinin B2 receptor calcium mobilization (hB2R-CaM) assay was used to determine the antagonistic activity of compounds selected from the example compounds Nos. 1 to 168 towards human bradykinin B2 receptor (hB2R). The assay is defined herein as a standard in vitro B2 receptor activity assay, which can be used to determine IC50 values of the compounds according to the present invention, e. g. the compounds shown in Examples 1-11.
# The antagonistic activity of compounds according to the present invention was investigated with the hB2R-CaM assay using the B2 Bradykinin Receptor Stable Cell Line HTS041C (Eurofins, St. Charles MO) and the FLIPR Calcium 6 Assay Kit (Molecular Devices, Wokingham, UK) according to the instructions of the providers. CaM assay measurements were performed with a Flexstation 3 System (Molecular Devices) which allows the precise addition of compounds (B2R antagonists) and bradykinin (B2R agonist) to the cells and adjacent continuous recording of the time-dependent CaM assay signals.
# HTS041C cells were cultured in high glucose DMEM cell culture medium (Lonza) supplemented with 10% heat-inactivated FBS (PAN Biotech), 10 mM HEPES, Penicillin/Streptomycin (200 U/mL, 200 μg/mL), 1× non-essential amino acids (Lonza), and 250 μg/mL G418 (Invivogen) in cell incubator at 37° C. in a 5% CO2 atmosphere.
# One day before the CaM assay experiments cells were seeded in 200 μL DMEM cell culture medium with reduced FBS (5%) and without G418 on clear bottom black 96 well plates (ThermoFisher #165305). Cell starvation was carried out by incubation (37° C., 5% CO2) of 70.000 cells/well for 24 h to 28 h. Immediately prior calcium dye-loading the medium was carefully aspirated and cells were washed with Hank's balanced salt solution (HBSS, Gibco) containing Ca^2+, Mg^2+ and 20 mM HEPES, adjusted to pH 7.4 (HBSS+). Calcium Dye Loading of the Cells:
# For calcium dye-loading one FLIPR 6 assay aliquot was dissolved in 20 mL HBSS+. 150 μL of the dye loading solution was added to cell plate and incubated for 120 min at 37° C. and 5% CO2. After dye loading the cell plate was immediately transferred to the pre-warmed (37° C.) Flexstation 3 System for CaM assaying.
# Freshly prepared compound (B2 receptor antagonists) dilution series (8 pt, n=2) and bradykinin (B2 receptor agonist) solution in non-binding plates (Costar) were transferred to the Flexstation System (source plate) shortly before starting the experiment. Bradykinin was added in EC80 concentration determined in n>3 preliminary experiments with 8 pt concentration response curves (n=8)). CaM assay was executed by Flexstation 3 System starting with recording of calcium-sensitive dye fluorescence in bottom-read Flex modus with ex/em=485 nm/525 nm, cut off(em)=[…]. After 20 s, 50 μL of 4-fold concentrated compound dilutions were added to the cells resulting in a final DMSO (Sigma) concentration of 0.1% in the cell plate. CaM signals were monitored for 80 s after additions for detection of potential agonistic activities. Prior to bradykinin stimulus compound- and vehicle-treated cells were incubated for 25 min at 37° C. within the Flexstation System. Then 50 μL of a 5-fold concentrated bradykinin solution (HBSS+, 0.1% DMSO) was added to trigger CaM signals (Read out: Max-Min values) which were measured for 80 s post bradykinin stimulus.
# IC50 determinations were performed by 4 parameter logistic model curve fitting of the 8 pt (n=2) compound concentration response curves using XLFIT (IDBS) software.
# Relative IC50 values of the test compounds were determined with the same hB2R-CaM assay as in Example 12.
row,SMILES,IC50 [nM]
1,Cc1cc(-n2cc(F)cn2)c2cccc(OCc3c(Cl)cc(F)cc3[C@H](C)NC(=O)[C@H]3COC(C)(C)O3)c2n1 [Compound 62],51 to 250
2,Cc1cc(-n2cc(F)cn2)c2cccc(OCc3c(Cl)cc(F)cc3[C@H](C)NC(=O)c3cn(C)cn3)c2n1 [Compound 108],51 to 250
3,Cc1cc(-n2cc(F)cn2)c2cccc(OCc3c(Cl)cc(F)cc3[C@H](CO)NC(=O)C(C)(C)O)c2n1 [Compound 105],51 to 250
4,Cc1cc(-n2cc(F)cn2)c2cccc(OCc3c(Cl)cc(F)cc3[C@H](C)NC(=O)[C@@H]3CNC(=O)N3)c2n1 [Compound 113],51 to 250
5,Cc1cc(-n2cc(F)cn2)c2cccc(OCc3c(Cl)cc(F)cc3[C@H](C)NC(=O)[C@@](C)(O)C(F)(F)F)c2n1 [Compound 52],251 to 1000
6,Cc1cc(-n2cc(F)cn2)c2cccc(OCc3c(Cl)cc(F)cc3[C@H](C)NC(=O)[C@H]3CCC(=O)N3)c2n1 [Compound 115],51 to 250
7,Cc1cc(-n2ncnc2C)c2cccc(OCc3c(Cl)cc(F)cc3[C@H](C)NC(=O)[C@@H](C)O)c2n1 [Compound 97],51 to 250
8,Cc1cc(-c2ncnn2C)c2cccc(OCc3c(Cl)cc(F)cc3[C@H](C)NC(=O)c3ccncc3)c2n1 [Compound 163],≤ 50
9,Cc1cc(-c2ncnn2C)c2cccc(OCc3c(Cl)cc(F)cc3[C@H](C)NC(=O)c3ccon3)c2n1 [Compound 122],≤ 50
10,Cc1cc(-n2cc(F)cn2)c2cccc(OCc3c(Cl)cc(F)cc3[C@H](C)NC(=O)c3ccncc3)c2n1 [Compound 125],51 to 250
11,"Cc1cc(-n2cc(F)cn2)c2cccc(OCc3c(Cl)cc(F)cc3[C@H](C)N(C)C(=O)[C@H](C)O)c2n1 [Compound 2, (S)—N—((S)-1-(3-chloro-5-fluoro-2-((4-(4-fluoro-1H-pyrazol-1-yl)-2-methylquinolin-8-yloxy)methyl)phenyl)ethyl)-2-hydroxy-N-methylpropanamide]",≤ 50
12,Cc1cc(-n2cc(F)cn2)c2cccc(OCc3c(Cl)cc(F)cc3[C@H](C)NC(=O)[C@@H]3CCC(=O)N3)c2n1 [Compound 114],51 to 250
13,CCC[C@H](O)C(=O)N[C@@H](C)c1cc(F)cc(Cl)c1COc1cccc2c(-n3cc(F)cn3)cc(C)nc12 [Compound 50],51 to 250
14,Cc1cc(-c2ncc(C#N)n2C)c2cccc(OCc3c(Cl)cc(F)cc3[C@H](C)NC(=O)COC(F)F)c2n1 [Compound 205],≤ 50
15,Cc1cc(-n2cc(F)cn2)c2cccc(OCc3c(Cl)cc(F)cc3[C@H](C)NC(=O)[C@@H]3CCOC3)c2n1 [Compound 19],≤ 50
16,Cc1cc(-c2ncnn2C)c2cccc(OCc3c(Cl)cc(F)cc3[C@H](C)NC(=O)c3cnco3)c2n1 [Compound 120],≤ 50
17,Cc1cc(-c2ccnn2C)c2cccc(OCc3c(Cl)cc(F)cc3[C@H](C)NC(=O)C(C)(C)O)c2n1 [Compound 184],≤ 50
18,Cc1cc(-n2nc(C)nc2C)c2cccc(OCc3c(Cl)cc(F)cc3[C@H](C)NC(=O)c3cc(C)on3)c2n1 [Compound 136],51 to 250
19,Cc1cc(-n2cc(F)cn2)c2cccc(OCc3c(Cl)cc(F)cc3[C@H](C)NC(=O)[C@@H]3CC[C@H](C)O3)c2n1 [Compound 132],≤ 50
20,Cc1cc(-n2nccn2)c2cccc(OCc3c(Cl)cc(F)cc3[C@H](C)NC(=O)[C@H]3CCOC3)c2n1 [Compound 30],≤ 50
21,CC[C@H](NC(=O)c1coc(C)n1)c1cc(F)cc(Cl)c1COc1cccc2c(-n3cc(F)cn3)cc(C)nc12 [Compound 152],51 to 250
22,CC[C@H](NC(=O)c1ccon1)c1cc(F)cc(Cl)c1COc1cccc2c(-c3ncnn3C)cc(C)nc12 [Compound 150],≤ 50
23,[2H][C@@](C)(NC(=O)c1cocn1)c1cc(F)cc(Cl)c1COc1cccc2c(-n3ncnc3C)cc(C)nc12 [Compound 198],≤ 50
24,Cc1cc(-n2cc(F)cn2)c2cccc(OCc3c(Cl)cc(F)cc3[C@H](C)NC(=O)c3cnoc3C)c2n1 [Compound 89],51 to 250
25,"Cc1cc(-n2cc(F)cn2)c2cccc(OCc3c(Cl)cc(F)cc3[C@H](C)NC(=O)[C@H](O)CN)c2n1 [Compound 3, (R)-3-amino-N—((S)-1-(3-chloro-5-fluoro-2-((4-(4-fluoro-1H-pyrazol-1-yl)-2-methylquinolin-8-yloxy)methyl)phenyl)ethyl)-2-hydroxypropanamide]",251 to 1000

# Now from value to compound:
row,IC50 [nM],SMILES
1,≤ 50,Cc1cc(-c2ncnn2C)c2cccc(OCc3c(Cl)cc(F)cc3[C@H](C)NC(=O)c3coc(C)n3)c2n1 [Compound 130]
2,≤ 50,Cc1cc(-c2ncnn2C)c2cccc(OCc3c(Cl)cc(F)cc3[C@H](C)NC(=O)[C@@H]3CC[C@H](C)O3)c2n1 [Compound 133]
3,≤ 50,Cc1cc(-c2ncnn2C)c2cccc(OCc3c(Cl)cc(F)cc3[C@H](C)NC(=O)C3CCC(C)(C)O3)c2n1 (stereo partly shown) [Compound 118]
4,≤ 50,Cc1cc(-n2cc(F)cn2)c2cccc(OCc3c(Cl)cc(F)cc3[C@H](C)NC(=O)c3coc(C)n3)c2n1 [Compound 92]
5,≤ 50,Cc1cc(-c2ncnn2C)c2cccc(OCc3c(Cl)cc(F)cc3[C@H](C)NC(=O)c3cocn3)c2n1 [Compound 128]
6,≤ 50,COCCC(=O)N[C@@H](CO)c1cc(F)cc(Cl)c1COc1cccc2c(-n3cc(F)cn3)cc(C)nc12 [Compound 107]
7,≤ 50,Cc1cc(-n2cc(F)cn2)c2cccc(OCc3c(Cl)cc(F)cc3[C@H](C)NC(=O)C3(C)CCCO3)c2n1 (stereo partly shown) [Compound 110]
8,≤ 50,Cc1cc(-c2ccnn2C)c2cccc(OCc3c(Cl)cc(F)cc3[C@H](C)NC(=O)CO)c2n1 [Compound 194]
9,≤ 50,[2H][C@@](C)(NC(=O)c1cocn1)c1cc(F)cc(Cl)c1COc1cccc2c(-c3ncnn3C)cc(C)nc12 [Compound 199]
10,≤ 50,Cc1cc(-n2cc(F)cn2)c2cccc(OCc3c(Cl)cc(F)cc3[C@H](C)NC(=O)c3cocn3)c2n1 [Compound 82]
11,≤ 50,Cc1cc(-n2ncnc2C)c2cccc(OCc3c(Cl)cc(F)cc3[C@H](C)NC(=O)COC(F)(F)F)c2n1 [Compound 161]
12,≤ 50,Cc1cc(-c2ccnn2C)c2cccc(OCc3c(Cl)cc(F)cc3[C@H](C)NC(=O)COC(F)F)c2n1 [Compound 175]
13,≤ 50,"Cc1cc(-n2ncnc2C)c2cccc(OCc3c(Cl)cc(F)cc3[C@H](C)NC(=O)COC(F)F)c2n1 [Compound 9, (S)—N-(1-(3-chloro-5-fluoro-2-((2-methyl-4-(5-methyl-1H-1,2,4-triazol-1-yl)quinolin-8-yloxy)methyl)phenyl)ethyl)-2-(difluoromethoxy)acetamide]"
14,≤ 50,Cc1cc(-n2cc(F)cn2)c2cccc(OCc3c(Cl)cc(F)cc3[C@H](C)NC(=O)C3COC3)c2n1 [Compound 57]
15,≤ 50,Cc1cc(-n2cc(F)cn2)c2cccc(OCc3c(Cl)cc(F)cc3[C@H](C)NC(=O)[C@H]3CCCO3)c2n1 [Compound 20]
16,≤ 50,Cc1cc(-c2ncnn2C)c2cccc(OCc3c(Cl)cc(F)cc3[C@H](C)NC(=O)C3CCCCC3)c2n1 [Compound 144]
17,≤ 50,Cc1cc(-n2cc(F)cn2)c2cccc(OCc3c(Cl)cc(F)cc3[C@H](C)NC(=O)c3cccnc3)c2n1 [Compound 124]
18,≤ 50,Cc1cc(-c2ncnn2C)c2cccc(OCc3c(Cl)cc(F)cc3[C@H](C)NC(=O)c3ccccn3)c2n1 [Compound 164]

# Reference: US11820756B2, “Bradykinin B2 receptor antagonists” (Pharvaris Netherlands B.V., priority 2017, dated 2023)
